Results on 1 molecule are retold here after ChEMBL document CHEMBL4364273, “Discovery of SHR1653, a Highly Potent and Selective OTR Antagonist with Improved Blood-Brain Barrier Penetration” (ACS Med Chem Lett, 2019).

pIC50: −log10 of the molar value. A value given as a limit tells only on which side of the number the result lay.

A short description of data set [1]: AUC (0 to 24 hrs) in Sprague-Dawley rat at 30 mg/kg, po by LC-MS/MS analysis. The note with it: in vivo. More on the design: dose 30 mg/kg, time < 24 hr, route oral. Format: ADME, organism-based.
Data set [2] can be described thus: Tmax in Sprague-Dawley rat at 150 mg/kg, po measured for 24 hrs by LC-MS/MS analysis. Format: ADME, organism-based. As to conditions: in vivo.
The nature of data set [3]: Clearance in nude mouse at 1 mg/kg, iv measured for 24 hrs by LC-MS/MS analysis. Format: ADME, organism-based. The note with it: in vivo.
The nature of data set [4]: Drug concentration in Sprague-Dawley rat brain by LC-MS/MS analysis. Format: ADME, tissue-based. As to conditions: in vivo.
Data set [5] has as its system Rattus norvegicus. Nature of the data set: Anti-premature ejaculation activity in anesthetized oxytocin-induced uterine contraction Sprague-Dawley rat model assessed as decrease in intraluminal uterine pressure at 100 mg/kg, po treated for 20 mins and 1 hr later treated with oxytocin and measured for 15 to 30 mins relative to control. Format: functional.
The nature of data set [6]: Unbound fraction in Sprague-Dawley rat plasma by LC-MS/MS analysis. Format: ADME, cell-free.
The nature of data set [7]: Half-life in Sprague-Dawley rat at 150 mg/kg, po measured for 24 hrs by LC-MS/MS analysis. Format: ADME, organism-based. As to conditions: in vivo.
Data set [8] can be described thus: Clearance in Sprague-Dawley rat at 1 mg/kg, iv measured for 24 hrs by LC-MS/MS analysis. Format: ADME, organism-based. The note with it: in vivo.
A further data set concerns the target T1, Cytochrome P450 1A2 (Homo sapiens, UniProt P05177).
T1 sequence (P05177 whole entry): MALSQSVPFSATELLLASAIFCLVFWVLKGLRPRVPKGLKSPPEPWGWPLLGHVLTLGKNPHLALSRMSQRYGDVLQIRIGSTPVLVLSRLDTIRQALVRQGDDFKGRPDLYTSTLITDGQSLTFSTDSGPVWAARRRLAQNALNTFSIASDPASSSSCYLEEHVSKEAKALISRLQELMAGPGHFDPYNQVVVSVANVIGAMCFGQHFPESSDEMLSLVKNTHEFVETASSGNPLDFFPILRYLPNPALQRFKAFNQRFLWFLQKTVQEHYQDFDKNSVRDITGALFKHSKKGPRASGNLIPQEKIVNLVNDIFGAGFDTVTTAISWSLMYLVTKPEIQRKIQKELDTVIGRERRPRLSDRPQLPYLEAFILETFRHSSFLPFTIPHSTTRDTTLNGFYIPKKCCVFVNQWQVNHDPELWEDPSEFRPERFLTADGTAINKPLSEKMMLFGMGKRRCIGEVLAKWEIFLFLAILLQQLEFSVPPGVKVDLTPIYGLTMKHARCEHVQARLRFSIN
The experiment in a line: Inhibition of human recombinant CYP1A2. Format: ADME.

For a further data set, the target named is Cytochrome P450 2D6 (Homo sapiens, UniProt P10635). The experiment in a line: Inhibition of human recombinant CYP2D6. Format: ADME.
Data set [9] can be described thus: Cmax in Beagle dog at 2 mg/kg, po measured for 24 hrs by LC-MS/MS analysis. Format: ADME, organism-based, Canis lupus familiaris. Set-up: dose 2 mg/kg, route oral. As to conditions: in vivo.
Data set [10] has as its system Rattus norvegicus. The experiment in a line: Anti-premature ejaculation activity in anesthetized oxytocin-induced uterine contraction Sprague-Dawley rat model assessed as decrease in intraluminal uterine pressure at 30 mg/kg, po treated for 20 mins and 1 hr later treated with oxytocin and measured for 15 to 30 mins relative to control. Format: functional.
For a further data set, the species on record is Homo sapiens. The experiment in a line: Selectivity ratio of IC50 for human vasopressin V1B receptor expressed in HEK293 cells to IC50 for human OTR expressed in HEK293 cells. Format: cell-based.
Data set [11] is described as follows: Acute toxicity in rat assessed as effect on clinical parameters up to 300 mg/kg measured for 7 days. Format: organism-based. As to conditions: in vivo, 168 h.
A short description of data set [12]: Tmax in Beagle dog at 20 mg/kg, po measured for 24 hrs by LC-MS/MS analysis. Format: ADME, organism-based, Canis lupus familiaris. As to conditions: in vivo.
Data set [13] is described as follows: Acute toxicity in rat. As to conditions: in vivo.

Chain of Cytochrome P450 2D6 (P10635 whole entry): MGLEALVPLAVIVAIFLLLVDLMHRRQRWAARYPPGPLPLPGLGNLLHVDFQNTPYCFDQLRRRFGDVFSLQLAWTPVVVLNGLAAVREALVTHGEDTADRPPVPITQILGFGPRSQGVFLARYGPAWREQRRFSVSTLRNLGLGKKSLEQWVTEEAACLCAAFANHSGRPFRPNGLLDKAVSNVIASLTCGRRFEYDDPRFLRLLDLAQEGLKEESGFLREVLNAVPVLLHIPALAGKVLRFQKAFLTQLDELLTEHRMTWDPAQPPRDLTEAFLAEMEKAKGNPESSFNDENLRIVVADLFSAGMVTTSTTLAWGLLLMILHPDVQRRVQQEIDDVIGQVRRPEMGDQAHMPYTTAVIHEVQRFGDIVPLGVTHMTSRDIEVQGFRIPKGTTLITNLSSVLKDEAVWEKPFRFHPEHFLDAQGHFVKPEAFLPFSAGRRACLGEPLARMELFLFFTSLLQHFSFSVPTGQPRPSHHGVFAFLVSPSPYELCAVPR

On to `COCc1nnc(N2C[C@@H]3C[C@]3(c3ccc(F)cc3Cl)C2)n1-c1ccc(OC)nc1`, for which, in data set [1], the AUC(0-t) at 24 h is 16.1 µg·h/mL. Also, the values for the Tmax in data set [2] and in data set [12] were 40.2 min and 52.8 min, respectively. Moreover, the figures for the clearance in data set [3] and in data set [8] were 1.88 L/h/kg and 0.966 L/h/kg, respectively. In data set [4], this molecule had a Ct of 229 ng/g. Moreover, the inhibition in vivo at 100 mg/kg in the data set on Rattus norvegicus [5] is 77.5%. The molecule also displayed a fraction unbound in data set [6] of 0.0146. Also, the half-life in [7] is 194 min. In addition, the pIC50 on Cytochrome P450 1A2 and at Cytochrome P450 2D6 was less than 4.52 each time. Besides, the concentration in [9] peaked (Cmax) at 0.93 µg/mL. Moreover, the inhibition in vivo at 30 mg/kg in the data set on Rattus norvegicus [10] was 65%. For the same molecule, in the data set listed under Homo sapiens, the Ratio IC50 worked out at 2500. Also, in data set [11], the Activity entry was “Non-Toxic”. Also, the MTD in data set [13] is greater than 900 mg/kg. Besides, the NOAEL in data set [13] was 300 mg/kg.
